Measurements published in the supplement of paper PMC10307832.

How the values were obtained:
Experiment in all cases: relative viability (nuclei count vs DMSO), 5 days (fraction); higher = more cells survive
[1] = compound: C/C(=N\NC(=S)N1CCC1)/C2=CC=CC=N2 + CC(=O)c1c(C)c2cnc(Nc3ccc(N4CCNCC4)cn3)nc2n(C2CCCC2)c1=O [Palbociclib] (partner 0.5 µM)
Outline: (§1)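 Lung cancer cell lines in 1536-well plates got either a single drug or a fixed anchor-drug dose together with five library-drug doses (not always all listed) in √10 steps, by pin tool, on the day after seeding. Nuclei were counted after 5 days, and relative viability is the treated-to-vehicle ratio of nuclei counts. Values are medians of duplicate plates.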

[2] = compound: C/C(=N\NC(=S)N1CCC1)/C2=CC=CC=N2 + CC(C)C[C@H](NC(=O)[C@H](Cc1ccccc1)NC(=O)c1cnccn1)B(O)O [Bortezomib] (partner 0.002 µM)
Outline: as §1

[3] = compound: C/C(=N\NC(=S)N1CCC1)/C2=CC=CC=N2 + COc1cc2c(Oc3ccc(NC(=O)C4(C(=O)Nc5ccc(F)cc5)CC4)cc3F)ccnc2cc1OCCCN1CCOCC1 [Foretinib] (partner 0.25 µM)
Outline: as §1

[4] = compound: C/C(=N\NC(=S)N1CCC1)/C2=CC=CC=N2 + CS(=O)(=O)N1CCN(Cc2cc3nc(-c4cccc5[nH]ncc45)nc(N4CCOCC4)c3s2)CC1 [Pictilisib] (partner 1 µM)
Outline: as §1

Row | Cell Line | relative viability ([1]; first compound 0.05 µM) | relative viability ([1]; first compound 0.1581 µM) | relative viability ([1]; first compound 0.5 µM) | relative viability ([1]; first compound 1.581 µM) | relative viability ([1]; first compound 5 µM) | relative viability ([2]; first compound 0.05 µM) | relative viability ([2]; first compound 0.1581 µM) | relative viability ([2]; first compound 0.5 µM) | relative viability ([2]; first compound 1.581 µM) | relative viability ([2]; first compound 5 µM) | relative viability ([3]; first compound 0.05 µM) | relative viability ([3]; first compound 0.1581 µM) | relative viability ([3]; first compound 0.5 µM) | relative viability ([3]; first compound 1.581 µM) | relative viability ([3]; first compound 5 µM) | relative viability ([4]; first compound 0.05 µM) | relative viability ([4]; first compound 0.1581 µM) | relative viability ([4]; first compound 0.5 µM) | relative viability ([4]; first compound 1.581 µM) | relative viability ([4]; first compound 5 µM)
1 | 201T | 0.27 | 0.351 | 0.307 | 0.213 | 0.205 | 0.527 | 0.612 | 0.418 | 0.394 | 0.348 | 0.213 | 0.209 | 0.19 | 0.181 | 0.177 | 0.438 | 0.494 | 0.444 | 0.389 | 0.344
2 | A-427 | 0.194 | 0.224 | 0.205 | 0.174 | 0.181 | 0.171 | 0.147 | 0.126 | 0.117 | 0.114 | 0.146 | 0.185 | 0.172 | 0.122 | 0.124 | 0.109 | 0.142 | 0.129 | 0.116 | 0.125
3 | ABC-1 | 0.344 | 0.412 | 0.328 | 0.239 | 0.275 | 0.296 | 0.273 | 0.233 | 0.276 | 0.283 | 0.13 | 0.243 | 0.197 | 0.207 | 0.208 | 0.305 | 0.334 | 0.24 | 0.222 | 0.269
4 | BEN | 0.346 | 0.332 | 0.336 | 0.283 | 0.313 | 0.15 | 0.211 | 0.211 | 0.193 | 0.165 | 0.17 | 0.204 | 0.175 | 0.171 | 0.205 | 0.164 | 0.162 | 0.156 | 0.186 | 0.176
5 | CAL-12T | 0.0958 | 0.145 | 0.131 | 0.109 | 0.122 | 0.21 | 0.252 | 0.256 | 0.215 | 0.24 | 0.184 | 0.21 | 0.146 | 0.161 | 0.138 | 0.168 | 0.198 | 0.138 | 0.167 | 0.178
6 | COR-L23 | 0.0993 | 0.12 | 0.0934 | 0.0924 | 0.0839 | 0.12 | 0.139 | 0.114 | 0.077 | 0.0874 | 0.147 | 0.132 | 0.14 | 0.0938 | 0.0923 | 0.134 | 0.0963 | 0.103 | 0.0639 | 0.0663
7 | COR-L 105 | 0.353 | 0.358 | 0.349 | 0.316 | 0.318 | 0.287 | 0.339 | 0.297 | 0.253 | 0.244 | 0.33 | 0.312 | 0.382 | 0.233 | 0.268 | 0.318 | 0.346 | 0.325 | 0.279 | 0.254
8 | Calu-6 |  |  |  |  |  | 0.165 | 0.182 | 0.188 | 0.171 | 0.175 | 0.0699 | 0.0625 | 0.0749 | 0.0997 | 0.0865 | 0.109 | 0.139 | 0.152 | 0.141 | 0.132
